Results as given in PMC9964390, “Design, Synthesis and Phenotypic Profiling of Simplified Gedatolisib Analogues” (Pharmaceuticals, 2023).
Where two headings read alike, the source gives them in different places.

Key:
K562 = assay: MTT cell viability assay; assay type: cell-based; details: Homo sapiens, K562, 72 h MTT; for Emax: read-out: Emax (maximum effect at maximum concentration used)
Protocol: (§1) For the evaluation of cellular cytotoxicity in cancer cell lines, the compounds were tested at concentrations ranging from 0.00003 μM to 150 μM. Immortalized cancer cells were selected: PC-3 (PTEN-mutated prostate adenocarcinoma), MCF-7 (PI3KCA-mutated breast carcinoma), K562 (P53-mutated chronic myeloid leukemia), CCRF-CEM (acute lymphoblastic leukemia with mutation in PTEN) and MOLT-4 (acute lymphoblastic leukemia with mutation in PI3KR1/PTEN). Peripheral blood mononuclear cells (PBMCs) were used to determine the cytotoxic selectivity index (SI). All immortalized cells were cultured in RPMI 1640 medium with 10% (v/v) FBS, streptomycin + penicillin, at 37 °C in a humidified incubator containing 5% CO2.
(§2) Cell viability was assessed by the MTT assay. The lines selected for this study were plated according to their respective densities, which ranged from 3 × 10^4 to 4 × 10^4 cells per well. Subsequently, they were treated with test compounds at different concentrations (0.00003 μM to 150 μM), gedatolisib and GSK-1059615.
(§3) After incubation, the plates are centrifuged at 440× g for 10 min. Then, 110 μL of the supernatant was withdrawn and each well received 10μL of the MTT solution. The plate was again incubated in an oven at 37 °C and 5% CO2 for 3 to 4 h. At the end of the incubation time, 100 μL of SDS-HCL detergent was added to solubilize the formazan crystals. The plate was shaken on an automatic overnight shaker and then read at a wavelength of 595 nm on the Molecular Devices Spectramax M5 plate reader.

MCF7 [1] = assay: MTT cell viability assay; assay type: cell-based; details: Homo sapiens, MCF7, 72 h MTT; for CC50: 95% confidence interval in brackets; for Emax: read-out: Emax (maximum effect at maximum concentration used)
Protocol: as §1, §2, §3

PC-3 = assay: MTT cell viability assay; assay type: cell-based; details: Homo sapiens, PC-3, 72 h MTT; for CC50: 95% confidence interval in brackets; for Emax: read-out: Emax (maximum effect at maximum concentration used)
Protocol: as §1, §2, §3

[2] = test system: PC-3, MCF7, K562, CCRF-CEM and MOLT-4; assay: MTT single-concentration cytotoxicity screening; assay type: cell-based, human; details: single concentration 30 μM; reduction in cell viability ≥ 50% selected for CC50
Protocol: In a first approach, the assay was validated with two standard drugs: gedatolisib and GSK-1059615.
After understanding the response profile of the selected cell lines to the treatment with gedatolisib and GSK-1059615, we investigated the cytotoxic activity of compounds 5a-f at a single concentration (30 μM). […] During the experiments, compounds 5a (LASSBio-2250), 5b (LASSBio-2251) and 9 (CAS-942789959) were insoluble and precipitated on the culture medium. Therefore, they were evaluated also at the screening concentration of 1 μM.
as §2, §3

[3] = PBMC viability assay (72 h MTT); assay type: cell-based, human; set-up: Emax at 72 h: dose or concentration left out as unconfirmed; details: human; for viability at 72 h, 0.3 µM: 0.3 µM (printed 0.3M); for viability at 72 h, 3 µM: 3 µM (printed 3M)
Protocol: Donor blood was collected and EDTA (ethylenediamine tetraacetic acid) was added to the sterile laminar flow in a 1:20 ratio. In a 15 mL falcon tube, 4.5 mL of Ficoll gradient was added, and then 9 mL of blood was added over the gradient in a 1:2 ratio. The tubes were centrifuged for 40 min at a speed of 750× g with an acceleration of 2 and a brake of 0. The ring of mononuclear cells formed was collected and added to a new tube.
Tubes with PBMCs were centrifuged in an incomplete RPMI medium for 10 min at 580× g with an acceleration of 8 and a brake of 9. The supernatant was discarded, and the cells were resuspended in 1 mL of RPMI medium supplemented with 20% […]. PBMCs were added to 96-well plates at a concentration of 1 × 10^5 cells per well. […]
After incubation, each well received 20 µL of MTT (5 mg/mL), followed by incubation for 4 h in the CO2 oven and centrifugation for 12 min at 1200× g. The supernatant from each well was taken, and 100 µL of isopropyl alcohol was added to solubilize the formazan crystals. The absorbance of the plates was measured at 570 nm in the Flex Station equipment.

CCRF-CEM cell line = assay: Muse Annexin V and Dead Cell Kit (phosphatidylserine externalization, membrane integrity); assay type: cell-based, human; details: for reduction of cell viability / total apoptosis: CCRF-CEM, at its CC50 value
Protocol: (§4) For quantitative analysis of live, early and late apoptosis, and cell death on both the CCRF-CEM and MOLT-4 cell lines, treated with gedatolisib and compound 5f (LASSBio-2252), the Muse® Annexin V and Dead Cell Kit was used. Compounds were studied using three concentrations.
(§5) The Annexin V and Dead Cell Kit (catalog n^o. MCH100105, Luminex) contains Annexin V, a phospholipid marker phosphatidylserine, and the molecule 7-AAD, a DNA marker for cells with a ruptured membrane. […] After incubation for 20 min at room temperature, the samples were read on the cytometer. The data with the histograms generated contain information on the percentage of viable cells, in early apoptosis, late apoptosis and dead cells. Samples from three independent experiments were performed in duplicate, and then statistical analysis was performed using the Prism6 statistical program.

MOLT-4 cell line = assay: as above; assay type: cell-based, human
Protocol: as §4, §5

MOLT-4 = assay: Muse Count & Viability Kit (flow cytometry); details: for CC50 / Emax: Homo sapiens; for loss of potency in Muse Count & Viability Kit 72 h versus 72 h MTT: MOLT-4
Protocol: Cell viability, cell death pattern, cell cycle and detection of PI3K activation were evaluated, and each analysis was performed using specific protocols of the Guava Muse Cell Analyzer.
In total, 20 µL of the cell solution was added to 380 µL of the reagent in 1 mL Eppendorf tubes and incubated for 5 min at room temperature in the dark. Samples from three independent experiments carried out in duplicate were read on the cytometer, followed by statistical analysis of the histograms on Prism6 to determine the CC50.

MCF7 [4] = assay: Muse Count & Viability Kit (flow cytometry); set-up: Emax: dose or concentration left out as unconfirmed
[5] = PBMC, read-out: % cell viability
[6] = Homo sapiens, CCRF-CEM 48 h, read-out: % of cells, Viable
[7] = peripheral blood mononuclear cells (PBMCs), PBMC, read-out: % cell viability

Work on `c1ccc(N2CCN(c3nc(N4CCCNCC4)nc(N4CCOCC4)n3)CC2)cc1` [5f, 4-(4-(1,4-Diazepan-1-yl)-6-(4-phenylpiperazin-1-yl)-1,3,5-triazin-2-yl)morpholine] yielded a CC50 (K562; 95% confidence interval in brackets) of 23.4 µM, an Emax (K562) of 84% and a CC50 (MCF7 [1]) of 37 µM. The Emax (MCF7 [1]) was 91%, the CC50 (PC-3) was 62.1 µM and the Emax (PC-3) was 84%. For the same compound, the “cytotoxic effect on leukemia cell lines at single concentration” value [2] was “cytotoxic effect”, the Emax at 72 h [3] was 26% and the viability at 72 h, 0.03 µM ([3]; PBMC, 0.03 µM (printed 0.03M), read-out: % cell viability) was 92%. It also gave a viability at 72 h, 0.3 µM [3, 5] of 88%, a viability at 72 h, 3 µM [3, 5] of 91% and a viability at 72 h, 30 µM ([3]; PBMC, 30 µM (printed 30M), read-out: % cell viability) of 75%. The viability at 72 h, 100 µM ([3]; PBMC, 100 µM (printed 100M), read-out: % cell viability) was 73%, the “reduction of cell viability” value (CCRF-CEM cell line) was “about 50%” and the total apoptosis (CCRF-CEM cell line) was “about 50%”. It also gave a viability at 5 µM (CCRF-CEM cell line; Homo sapiens, CCRF-CEM 48 h, 5 μM, read-out: % of cells, Viable) of 87%, a viability at 50 µM (CCRF-CEM cell line; [6]) of 47% and a viability at 6 µM (MOLT-4 cell line; Homo sapiens, MOLT-4 48 h, 6 μM, read-out: % de células, Viable) of 86%. The viability at 60 µM (MOLT-4 cell line; Homo sapiens, MOLT-4 48 h, 60 μM, read-out: % de células, Viable) was 20%, the “reduction of the number of viable cells” value (MOLT-4 cell line; MOLT-4, tested at 10-fold concentration) was 80% and the “reduction of the number of viable cells” value (MOLT-4 cell line; MOLT-4, tested at its CC50 value) was 14%. For the same compound, the CC50 (MOLT-4; MOLT-4, 48 h) was 51 µM, the Emax (MOLT-4; MOLT-4, 48 h) was 90% and the CC50 (MOLT-4; MOLT-4, 72 h) was 60.8 µM. The Emax (MOLT-4; MOLT-4, 72 h) was 92%, the “loss of potency in Muse Count & Viability Kit 72 h versus 72 h MTT” value (MOLT-4) was at most 10 fold and the cytotoxic activity (MCF7 [4]; MCF-7, Muse Count & Viability Kit, 72 h) was “inactive”.

Work on `CN(C)C1CCN(C(=O)c2ccc(NC(=O)Nc3ccc(-c4nc(N5CCOCC5)nc(N5CCOCC5)n4)cc3)cc2)CC1` [Gedatolisib, gedatolisib] yielded a CC50 (K562; K562, 72 h) of over 24 µM, a CC50 (K562; K562, 72 h, 95% confidence interval in brackets) of 24.1 µM and an Emax (K562) of 64%. It also gave a CC50 (MCF7 [1]) of 0.07 µM, an Emax (MCF7 [1]) of 87% and a CC50 (PC-3) of 0.54 µM. The Emax (PC-3) was 80%, the viability at 72 h, 0.0003 µM ([3]; peripheral blood mononuclear cells (PBMCs), PBMC, 0.0003 µM (printed 0.0003M), read-out: % cell viability) was 89% and the viability at 72 h, 0.003 µM ([3]; peripheral blood mononuclear cells (PBMCs), PBMC, 0.003 µM (printed 0.003M), read-out: % cell viability) was 85%. The viability at 72 h, 0.3 µM [3, 7] was 80%, the viability at 72 h, 3 µM [3, 7] was 85% and the viability at 72 h, 50 µM ([3]; peripheral blood mononuclear cells (PBMCs), PBMC, 50 µM (printed 50M), read-out: % cell viability) was 67%. For the same compound, the “reduction of cell viability” value (CCRF-CEM cell line) was “about 50%”, the total apoptosis (CCRF-CEM cell line) was “about 50%” and the viability at 0.6 µM (CCRF-CEM cell line; Homo sapiens, CCRF-CEM 48 h, 0.6 μM, read-out: % of cells, Viable) was 68%. The viability at 6 µM (CCRF-CEM cell line; Homo sapiens, CCRF-CEM 48 h, 6 μM, read-out: % of cells, Viable) was 55%, the viability at 50 µM (CCRF-CEM cell line; [6]) was 7% and the viability at 0.15 µM (MOLT-4 cell line; Homo sapiens, MOLT-4 48 h, 0.15 μM, read-out: % de células, Viable) was 10%. The viability at 1.5 µM (MOLT-4 cell line; Homo sapiens, MOLT-4 48 h, 1.5 μM, read-out: % de células, Viable) was 11%, the viability at 30 µM (MOLT-4 cell line; Homo sapiens, MOLT-4 48 h, 30 μM, read-out: % de células, Viable) was 4% and the “reduction of cell viability” value (MOLT-4 cell line; MOLT-4, concentration 10 times lower than its CC50) was 90%. It also gave a CC50 (MOLT-4; MOLT-4, 48 h) of 1.65 µM, an Emax (MOLT-4; MOLT-4, 48 h) of 82% and a CC50 (MOLT-4; MOLT-4, 72 h) of 1.15 µM. The Emax (MOLT-4; MOLT-4, 72 h) was 86%, the “loss of potency in Muse Count & Viability Kit 72 h versus 72 h MTT” value (MOLT-4) was 100 fold and the Emax (MCF7 [4]; Homo sapiens, MCF7, 72 h, read-out: maximum effect (Emax)) was 54%.
